ChEMBL document CHEMBL3763063, “Novel 4-anilinoquinazoline derivatives featuring an 1-adamantyl moiety as potent EGFR inhibitors with enhanced activity against NSCLC cell lines” (Eur J Med Chem, 2016)
Active and inactive are the calls of the source. The calls are words filed in the database; no cut-off is given here.

Experiments:
[1] = target: Epidermal growth factor receptor (Homo sapiens, UniProt P00533);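 further: recombinant wild-type human EGFR cytoplasmic domain, inhibition measured as decrease in autophosphorylation via Z'-Lyte readout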
Description: Inhibition of wild type recombinant human EGFR assessed as reduction in autophosphorylation of cytoplasmic domain by Z'-Lyte assay

[2] = system: NCI-H1975; assay: cells; type: functional, cell-based; details: Homo sapiens, NCI-H1975, 72 h
Description: Antiproliferative activity against human NCI-H1975 cells harboring EGFR L858R/T790M double mutant assessed as reduction in cell viability after 72 hrs by MTT assay

[3] = target: Epidermal growth factor receptor (Homo sapiens, UniProt P00533, L858R/T790M); type: protein assay;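 further: recombinant enzyme, cytoplasmic domain autophosphorylation read out by Z'-Lyte assay, IC50 reflects decrease in autophosphorylation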
Description: Inhibition of recombinant human EGFR L858R/T790M double mutant assessed as reduction in autophosphorylation of cytoplasmic domain by Z'-Lyte assay

[4] = Antiproliferative activity against human HCC827 cells harboring EGFR E746 to A750 deletion mutant assessed as reduction in cell viability after 72 hrs by MTT assay; type: functional, cell-based; details: HCC827, 72 h
[5] = system: A549; assay: cells; type: functional, cell-based; details: Homo sapiens, A549, 72 h
Description: Antiproliferative activity against human A549 cells harboring K-ras mutation assessed as reduction in cell viability after 72 hrs by MTT assay

[6] = system: A-431; assay: cells; type: functional, cell-based; details: Homo sapiens, A-431, 72 h;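 further: loss of viability in A431 cells carrying wild-type EGFR, read out by MTT, antiproliferative effect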
Description: Antiproliferative activity against human A431 cells harboring wild type EGFR assessed as reduction in cell viability after 72 hrs by MTT assay

[7] = system: MCF7; assay: cells; type: functional, cell-based; details: Homo sapiens, MCF7, 72 h;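 further: antiproliferative effect measured by MTT assay in EGFR-overexpressing MCF7 cells, with IC50 based on the drop in viable cells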
Description: Antiproliferative activity against human MCF7 cells overexpressing EGFR assessed as reduction in cell viability after 72 hrs by MTT assay

[8] = system: Epidermal growth factor receptor (Homo sapiens), P00533 [L858R,T790M]; assay: Potency index, ratio of gefitinib IC50 to compound IC50 for inhibition of recombinant human EGFR L858R/T790M double mutant; type: protein assay
[9] = system: NCI-H1975; assay: Effect on total EGFR L858R/T790M double mutant level in human NCI-H1975 cells at 0.1 to 10 uM after 12 hrs by Western blot analysis; type: ADME, cell-based; details: nci-h1975, 12 h
[10] = system: NCI-H1975; assay: Effect on total beta-actin level in human NCI-H1975 cells at 0.1 to 10 uM after 12 hrs by Western blot analysis; type: ADME, cell-based; details: nci-h1975, 12 h
[11] = system: NCI-H1975; assay: Effect on total AKT level in human NCI-H1975 cells at 0.1 to 10 uM after 12 hrs by Western blot analysis; type: ADME, cell-based; details: nci-h1975, 12 h
[12] = system: Epidermal growth factor receptor (Homo sapiens), P00533 [L858R,T790M]; assay: Inhibition of EGFR L858R/T790M double mutant autophosphorylation in human NCI-H1975 cells after 12 hrs by Western blot analysis; type: cell-based
[13] = system: Epidermal growth factor receptor (Homo sapiens), P00533 [L858R,T790M]; details: NCI-H1975, at 1 µM
Description: Inhibition of EGFR L858R/T790M double mutant in human NCI-H1975 cells assessed as reduction in phosphorylated AKT level at 1 uM after 12 hrs by Western blot analysis

[14] = system: NCI-H1975; assay: Potency index, ratio of gefitinib IC50 to compound IC50 for antiproliferative activity against human NCI-H1975 cells harboring EGFR L858R/T790M double mutant; type: functional

SMILES	IC50 [1] [µM]	IC50 [2] [µM]	IC50 [3] [µM]	IC50 [5] [µM]	IC50 [6] [µM]	IC50 [7] [µM]	Ratio IC50 [8]	inhibition [12]	inhibition [13]	IC50 [4] [µM]	Activity [9]	Activity [10]	Activity [11]	Ratio IC50 [14]
COCCOc1cc2ncnc(Nc3ccc(C(=O)NC45CC6CC(CC(C6)C4)C5)cc3)c2cc1OCCOC	0.00961	12.4	0.00602	3.42	1.02	1.25	160	Dose-dependent effect	Active	0.038	Non-toxic	Non-toxic	Non-toxic	
COc1cc2ncnc(Nc3cc(C(=O)NC45CC6CC(CC(C6)C4)C5)ccc3C)c2cc1OCCCN1CCOCC1	0.0154	17.1	0.0327	6.73	5.74	9.04				0.014				
COc1cc2ncnc(Nc3cccc(C(=O)NC45CC6CC(CC(C6)C4)C5)c3)c2cc1OCCCN1CCOCC1	0.00112	31	0.0115	11.6	10.5	23.6				0.02				
COc1cc2ncnc(Nc3ccc(C(=O)NC45CC6CC(CC(C6)C4)C5)cc3)c2cc1OCCCN1CCOCC1	0.00201	> 40	0.0054	6.11	27.9	12	160			0.009				
COCCOc1cc2ncnc(Nc3ccc(NC(=O)C45CC6CC(CC(C6)C4)C5)c(C#N)c3)c2cc1OCCOC	0.00501	38.3	0.0104	7.74	4.51	5.64				> 0.04				
COc1cc2ncnc(Nc3cccc(NC(=O)C45CC6CC(CC(C6)C4)C5)c3)c2cc1OCCCN1CCOCC1	0.00311	35.9	0.159	8.86	15.9	9.94				0.035				
COc1cc2ncnc(Nc3ccc(C(=O)NC45CC6CC(CC(C6)C4)C5)c(Cl)c3)c2cc1OCCCN1CCOCC1	0.00642	5.89	0.00462	2.65	2.06	5.48	160	Dose-dependent effect	Active	0.009	Non-toxic	Non-toxic	Non-toxic	5
COc1cc2ncnc(Nc3ccc(C(=O)NC45CC6CC(CC(C6)C4)C5)c(C#N)c3)c2cc1OCCCN1CCOCC1	0.00471	26.2	0.00571	5.94	3.39	11.6	160			0.02				

Now from value to compound, other results behind:

IC50 [1] [µM]	IC50 [2] [µM]	IC50 [3] [µM]	IC50 [5] [µM]	IC50 [6] [µM]	IC50 [7] [µM]	Ratio IC50 [8]	inhibition [12]	inhibition [13]	SMILES	IC50 [4] [µM]	Activity [9]	Activity [10]	Activity [11]	Ratio IC50 [14]
0.00452	16.6	0.0165	4.58	4.73	5.34				COCCOc1cc2ncnc(Nc3ccc(NC(=O)C45CC6CC(CC(C6)C4)C5)cc3C)c2cc1OCCOC	0.025				
0.00594	33.1	0.0108	7.62	6.62	5.19				COCCOc1cc2ncnc(Nc3ccc(NC(=O)C45CC6CC(CC(C6)C4)C5)c(OC)c3)c2cc1OCCOC	> 0.04				
0.00163	18.8	0.0145	3.99	9.52	11.2				COCCOc1cc2ncnc(Nc3cccc(NC(=O)C45CC6CC(CC(C6)C4)C5)c3)c2cc1OCCOC	0.03				
0.00292	21.6	0.0663	8.01	5.61	8.35				COCCOc1cc2ncnc(Nc3ccc(NC(=O)C45CC6CC(CC(C6)C4)C5)c(C)c3)c2cc1OCCOC	0.023				
